Measured values as given in patent publication US8071586B2, “Heterocyclyl compounds” (Hoffmann-La Roche Inc., priority 2008, dated 2011).
pIC50: −log10 of the molar value.

These compounds were tested against T1, human chemokine receptor 2 isoform B (CCR2) (Homo sapiens, UniProt P41597) (assay: Calcium mobilization assay (FLIPR, MCP-1 stimulated CHOK1-CCR2B-A5 cells)). Details: Ca mobilisation assay, CCR2 antagonist activity, inhibition of MCP-1 induced calcium increase.
T1 sequence (P41597 1-360 isoform P41597-2): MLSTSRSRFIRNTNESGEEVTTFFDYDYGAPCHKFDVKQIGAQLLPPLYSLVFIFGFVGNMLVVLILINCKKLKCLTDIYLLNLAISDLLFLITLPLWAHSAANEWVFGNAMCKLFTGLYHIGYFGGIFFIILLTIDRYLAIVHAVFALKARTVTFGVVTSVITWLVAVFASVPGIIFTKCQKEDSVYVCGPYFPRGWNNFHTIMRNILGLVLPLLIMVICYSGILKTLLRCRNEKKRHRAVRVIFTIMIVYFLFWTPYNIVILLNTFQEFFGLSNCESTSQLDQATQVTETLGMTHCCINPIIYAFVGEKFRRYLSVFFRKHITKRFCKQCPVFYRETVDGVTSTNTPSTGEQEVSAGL
Type: cell-based
Method: Calcium Mobilization Assay
CHOK1-CCR2B-A5 cells (from Euroscreen) stably overexpressing the human chemokine receptor 2 isoform B were cultured in Nutrient Hams F12 medium supplemented with 5% FBS, 100 U/ml penicillin, 100 μg/ml streptomycin, 400 μg/ml G418 and 5 μg/ml puromycin.
For the assay cells were grown overnight in 384-well black clear flat bottom polystyrene plates (Costar) at 37° C. at 5% CO2. After washing with DMEM, 20 mM Hepes, 2.5 mM probenecid, 0.1% BSA (DMEM assay buffer) cells were loaded with 4 μM Fluo-4 in the same DMEM assay buffer for 2 hours at 30° C. Excess dye was removed and cells were washed with DMEM assay buffer. 384-well compound plates were prepared with DMEM assay buffer/0.5% DMSO with or without various concentrations of test compounds. Usually compounds were tested for agonist and antagonist activity.
Test compounds were added to the assay plate and agonist activity was monitored as fluorescence for 80 seconds with a FLIPR (488 nm excitation; 510-570 nm emission; Molecular Devices). After 20-30 min. of incubation at 30° C., […] MCP-1 (R&D; Roche) was added and fluorescence was monitored again for 80 seconds. Increases in intracellular calcium are reported as maximum fluorescence after agonist exposure minus basal fluorescence before exposure. Antagonist activity is indicated as inhibitor concentration required for 50% inhibition of specific calcium increases.

Compound | pIC50
C[C@H]1C(=O)N(CCCN2CCC3(CC3)[C@H](O)C2)CCN1C(=O)NCc1ccc(Cl)cc1 [Example 77, (S)-4-[3-((S)-4-Hydroxy-6-aza-spiro[2.5]oct-6-yl)-propyl]-2-methyl-3-oxo-piperazine-1-carboxylic acid 4-chloro-benzylamide] | 6.96
C[C@H]1C(=O)N(CCCN2CCC3(CC3)[C@H](O)C2)CCN1C(=O)Nc1cccc(-c2ccccc2)c1 [Example 78, (S)-4-[3-((S)-4-Hydroxy-6-aza-spiro[2.5]oct-6-yl)-propyl]-2-methyl-3-oxo-piperazine-1-carboxylic acid biphenyl-3-ylamide] | 8.70
COC[C@H](CCN1CCC2(CC2)[C@H](O)C1)N1CCN(C(=O)Nc2ccc(F)c(Cl)c2)[C@@H](C)C1=O [Example 79, (S)-4-[(S)-3-((S)-4-Hydroxy-6-aza-spiro[2.5]oct-6-yl)-1-methoxymethyl-propyl]-2-methyl-3-oxo-piperazine-1-carboxylic acid (3-chloro-4-fluoro-phenyl)-amide] | 8.52
COC[C@H](CCN1CCC2(CC2)[C@H](O)C1)N1CCN(C(=O)Nc2ccc(Cl)c(Cl)c2)[C@@H](C)C1=O [Example 80, (S)-4-[(S)-3-((S)-4-Hydroxy-6-aza-spiro[2.5]oct-6-yl)-1-methoxymethyl-propyl]-2-methyl-3-oxo-piperazine-1-carboxylic acid (3,4-dichloro-phenyl)-amide] | 9.00
COC[C@H](CCN1CCCCC1)N1CCN(C(=O)Nc2ccc(Cl)c(Cl)c2)[C@@H](C)C1=O [Example 81, (S)-4-((S)-1-Methoxymethyl-3-piperidin-1-yl-propyl)-2-methyl-3-oxo-piperazine-1-carboxylic acid (3,4-dichloro-phenyl)-amide] | 8.05
COC[C@H](CCN1CCC2(CC2)[C@H](O)C1)N1CCN(C(=O)Nc2cccc(Cl)c2)[C@@H](C)C1=O [Example 82, (S)-4-[(S)-3-((S)-4-Hydroxy-6-aza-spiro[2.5]oct-6-yl)-1-methoxymethyl-propyl]-2-methyl-3-oxo-piperazine-1-carboxylic acid (3-chloro-phenyl)-amide] | 8.40
COC[C@H](CCN1CCC2(CC2)[C@H](O)C1)N1CCN(C(=O)Nc2cccc(F)c2)[C@@H](C)C1=O [Example 83, (S)-4-[(S)-3-((S)-4-Hydroxy-6-aza-spiro[2.5]oct-6-yl)-1-methoxymethyl-propyl]-2-methyl-3-oxo-piperazine-1-carboxylic acid (3-fluoro-phenyl)-amide] | 8.05
COC[C@H](CCN1CCC2(CC2)[C@H](O)C1)N1CCN(C(=O)Nc2ccccc2)[C@@H](C)C1=O [Example 84, (S)-4-[(S)-3-((S)-4-Hydroxy-6-aza-spiro[2.5]oct-6-yl)-1-methoxymethyl-propyl]-2-methyl-3-oxo-piperazine-1-carboxylic acid phenylamide] | 7.38
COC[C@H](CCN1CCC2(CC2)[C@H](O)C1)N1CCN(C(=O)Nc2cccc(Cl)c2)[C@H](C)C1=O [Example 85, (R)-4-[(S)-3-((S)-4-Hydroxy-6-aza-spiro[2.5]oct-6-yl)-1-methoxymethyl-propyl]-2-methyl-3-oxo-piperazine-1-carboxylic acid (3-chloro-phenyl)-amide] | 6.74
C[C@H]1C(=O)N([C@@H](CCN2CCCCC2)COC(=O)Nc2ccc(Cl)c(Cl)c2)CCN1C(=O)Nc1ccc(Cl)c(Cl)c1 [Example 86, (3,4-Dichloro-phenyl)-carbamic acid (S)-2-[(S)-4-(3,4-dichloro-phenylcarbamoyl)-3-methyl-2-oxo-piperazin-1-yl]-4-piperidin-1-yl-butyl ester] | 6.72
C[C@H]1C(=O)N(CCCCN2CCC3(CC3)[C@H](O)C2)CCN1C(=O)Nc1cccc(Cl)c1 [Example 87, (S)-4-[4-((S)-4-Hydroxy-6-aza-spiro[2.5]oct-6-yl)-butyl]-2-methyl-3-oxo-piperazine-1-carboxylic acid (3-chloro-phenyl)-amide] | 8.30
C[C@H]1C(=O)N(CCCCN2CCC3(CC3)[C@H](O)C2)CCN1C(=O)Nc1ccc(C(F)(F)F)cc1 [Example 88, (S)-4-[4-((S)-4-Hydroxy-6-aza-spiro[2.5]oct-6-yl)-butyl]-2-methyl-3-oxo-piperazine-1-carboxylic acid (4-trifluoromethyl-phenyl)-amide] | 7.01
C[C@H]1C(=O)N(CCCCN2CCC3(CC3)[C@H](O)C2)CCN1C(=O)Nc1cccc(C(F)(F)F)c1 [Example 89, (S)-4-[4-((S)-4-Hydroxy-6-aza-spiro[2.5]oct-6-yl)-butyl]-2-methyl-3-oxo-piperazine-1-carboxylic acid (3-trifluoromethyl-phenyl)-amide] | 7.60
C[C@H]1C(=O)N(CCCCN2CCC3(CC3)[C@H](O)C2)CCN1C(=O)Nc1ccc(Cl)c(Cl)c1 [Example 90, (S)-4-[4-((S)-4-Hydroxy-6-aza-spiro[2.5]oct-6-yl)-butyl]-2-methyl-3-oxo-piperazine-1-carboxylic acid (3,4-dichloro-phenyl)-amide] | 9.00
C[C@H]1C(=O)N(CCCCN2CCC3(CC3)[C@H](O)C2)CCN1C(=O)Nc1ccc2ccccc2c1 [Example 91, (S)-4-[4-((S)-4-Hydroxy-6-aza-spiro[2.5]oct-6-yl)-butyl]-2-methyl-3-oxo-piperazine-1-carboxylic acid naphthalen-2-ylamide] | 8.22

Second part, the compound after the results:

pIC50 | Compound
6.20 | C[C@H]1C(=O)N(CCCCN2CCC3(CC3)[C@H](O)C2)CCN1C(=S)Oc1ccc2ccccc2c1 [Example 92, (S)-4-[4-((S)-4-Hydroxy-6-aza-spiro[2.5]oct-6-yl)-butyl]-2-methyl-3-oxo-piperazine-1-carbothioic acid O-naphthalen-2-yl ester]
8.70 | C[C@H]1C(=O)N(CCCCN2CCC3(CC3)[C@H](O)C2)CCN1C(=O)Nc1cccc(-c2ccccc2)c1 [Example 93, (S)-4-[4-((S)-4-Hydroxy-6-aza-spiro[2.5]oct-6-yl)-butyl]-2-methyl-3-oxo-piperazine-1-carboxylic acid biphenyl-3-ylamide]
6.53 | C[C@H]1C(=O)N(CCCCN2CCC3(CC3)[C@H](O)C2)CCN1C(=O)Nc1cccc(-c2cccnc2)c1 [Example 94, (S)-4-[4-((S)-4-Hydroxy-6-aza-spiro[2.5]oct-6-yl)-butyl]-2-methyl-3-oxo-piperazine-1-carboxylic acid (3-pyridin-3-yl-phenyl)-amide]
6.25 | C[C@H]1C(=O)N(CCCCN2CCC3(CC3)[C@H](O)C2)CCN1C(=O)Nc1cccc(-c2ccncc2)c1 [Example 95, (S)-4-[4-((S)-4-Hydroxy-6-aza-spiro[2.5]oct-6-yl)-butyl]-2-methyl-3-oxo-piperazine-1-carboxylic acid (3-pyridin-4-yl-phenyl)-amide]
7.62 | C[C@H]1C(=O)N(CCCCN2CCC3(CC3)[C@H](O)C2)CCN1C(=O)Nc1ccc(C(F)(F)F)cn1 [Example 99, (S)-4-[4-((S)-4-Hydroxy-6-aza-spiro[2.5]oct-6-yl)-butyl]-2-methyl-3-oxo-piperazine-1-carboxylic acid (5-trifluoromethyl-pyridin-2-yl)-amide]
6.50 | C[C@H]1C(=O)N(CCCCN2CCC3(CC3)[C@H](O)C2)CCN1C(=O)Nc1cccc(C(F)(F)F)n1 [Example 101, (S)-4-[4-((S)-4-Hydroxy-6-aza-spiro[2.5]oct-6-yl)-butyl]-2-methyl-3-oxo-piperazine-1-carboxylic acid (6-trifluoromethyl-pyridin-2-yl)-amide]
6.42 | C[C@H]1C(=O)N(CCN2CCC3(CC3)[C@H](O)C2)CCN1C(=O)Nc1ccc(Cl)c(Cl)c1 [Example 104, (S)-4-[2-((S)-4-Hydroxy-6-aza-spiro[2.5]oct-6-yl)-ethyl]-2-methyl-3-oxo-piperazine-1-carboxylic acid (3,4-dichloro-phenyl)-amide]
9.00 | C[C@H]1C(=O)N([C@H](CO)CCN2CCC3(CC3)[C@H](O)C2)CCN1C(=O)Nc1ccc(Cl)c(Cl)c1 [Example 106, (S)-4-[(S)-3-((S)-4-Hydroxy-6-aza-spiro[2.5]oct-6-yl)-1-hydroxymethyl-propyl]-2-methyl-3-oxo-piperazine-1-carboxylic acid (3,4-dichloro-phenyl)-amide]
8.70 | C[C@H]1C(=O)N([C@H](CO)CCN2CCC3(CC3)[C@H](O)C2)CCN1C(=O)Nc1cccc(Cl)c1 [Example 107, (S)-4-[(S)-3-((S)-4-Hydroxy-6-aza-spiro[2.5]oct-6-yl)-1-hydroxymethyl-propyl]-2-methyl-3-oxo-piperazine-1-carboxylic acid (3-chloro-phenyl)-amide]
